Data from patent US10738028B2, “Spiro three-membered ring, spiro five-membered ring peptide deformylase inhibitor and use thereof in antibacteria and anti-tumor” (priority 2016, dated 2020).

How the values were obtained:
Type in all cases: cell-based
[1] = test system: Escherichia coli (including ESBLs, non-ESBLs); experiment: MIC, two-fold agar dilution (CLSI), clinical isolates; conditions: for Anti-bacterial activity (MIC), strain ECO+ 15-1: clinical isolate ECO+ 15-1; for Anti-bacterial activity (MIC), strain ECO+ 15-2: clinical isolate ECO+ 15-2; for Anti-bacterial activity (MIC), strain ECO+ 15-3: clinical isolate ECO+ 15-3; for Anti-bacterial activity (MIC), strain ECO+ 15-4: clinical isolate ECO+ 15-4; for Anti-bacterial activity (MIC), strain ECO− 15-1: clinical isolate ECO− 15-1; for Anti-bacterial activity (MIC), strain ECO− 15-2: clinical isolate ECO− 15-2; for Anti-bacterial activity (MIC), strain ECO− 15-3: clinical isolate ECO− 15-3; for Anti-bacterial activity (MIC), strain ECO− 15-4: clinical isolate ECO− 15-4
Summary of the method: (§1)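 Following the American Clinical and Laboratory Standards Institute procedure, agar two-fold dilution served to determine minimum inhibitory concentrations.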

[2] = test system: methicillin-sensitive Staphylococcus epidermidis (MSSE); experiment: as above; conditions: for Anti-bacterial activity (MIC), strain MSSE 15-3: clinical isolate MSSE 15-3; for Anti-bacterial activity (MIC), strain MSSE 15-4: clinical isolate MSSE 15-4; for Anti-bacterial activity (MIC), strain MSSE 15-5: clinical isolate MSSE 15-5; for Anti-bacterial activity (MIC), strain MSSE 15-6: clinical isolate MSSE 15-6
Summary of the method: as §1

[3] = test system: Enterococcus faecalis (EFA); experiment: as above; conditions: for Anti-bacterial activity (MIC), strain EFA 15-1: clinical isolate EFA 15-1; for Anti-bacterial activity (MIC), strain EFA 15-2: clinical isolate EFA 15-2; for Anti-bacterial activity (MIC), strain EFA 15-3: clinical isolate EFA 15-3; for Anti-bacterial activity (MIC), strain EFA 15-4: clinical isolate EFA 15-4; for Anti-bacterial activity (MIC), strain EFA 15-5: clinical isolate EFA 15-5; for Anti-bacterial activity (MIC), strain EFA 15-6: clinical isolate EFA 15-6; for Anti-bacterial activity (MIC), strain EFA 15-9: clinical isolate EFA 15-9
Summary of the method: as §1

[4] = test system: Enterococcus faecium (EFM); experiment: as above; conditions: for Anti-bacterial activity (MIC), strain EFM 15-1: clinical isolate EFM 15-1; for Anti-bacterial activity (MIC), strain EFM 15-2: clinical isolate EFM 15-2; for Anti-bacterial activity (MIC), strain EFM 15-3: clinical isolate EFM 15-3; for Anti-bacterial activity (MIC), strain EFM 15-4: clinical isolate EFM 15-4; for Anti-bacterial activity (MIC), strain EFM 15-5: clinical isolate EFM 15-5; for Anti-bacterial activity (MIC), strain EFM 15-6: clinical isolate EFM 15-6
Summary of the method: as §1

[5] = test system: methicillin-resistant Staphylococcus epidermidis (MRSE); experiment: as above; conditions: for Anti-bacterial activity (MIC), strain MRSE 15-1: clinical isolate MRSE 15-1; for Anti-bacterial activity (MIC), strain MRSE 15-2: clinical isolate MRSE 15-2; for Anti-bacterial activity (MIC), strain MRSE 15-3: clinical isolate MRSE 15-3; for Anti-bacterial activity (MIC), strain MRSE 15-7: clinical isolate MRSE 15-7
Summary of the method: as §1

[6] = test system: methicillin-resistant Staphylococcus aureus (MRSA); experiment: as above; conditions: for Anti-bacterial activity (MIC), strain MRSA 15-1: clinical isolate MRSA 15-1; for Anti-bacterial activity (MIC), strain MRSA 15-2: clinical isolate MRSA 15-2; for Anti-bacterial activity (MIC), strain MRSA 15-3: clinical isolate MRSA 15-3; for Anti-bacterial activity (MIC), strain MRSA 15-4: clinical isolate MRSA 15-4
Summary of the method: as §1

[7] = test system: methicillin-sensitive Staphylococcus aureus (MSSA); experiment: as above; conditions: for Anti-bacterial activity (MIC), strain MSSA 15-3: clinical isolate MSSA 15-3; for Anti-bacterial activity (MIC), strain MSSA 15-4: clinical isolate MSSA 15-4; for Anti-bacterial activity (MIC), strain MSSA 15-5: clinical isolate MSSA 15-5; for Anti-bacterial activity (MIC), strain MSSA 15-6: clinical isolate MSSA 15-6
Summary of the method: as §1

[8] = test system: Streptococcus pneoumoniae (SPN); experiment: as above; conditions: for Anti-bacterial activity (MIC), strain SPN 16-2: clinical isolate SPN 16-2; for Anti-bacterial activity (MIC), strain SPN 16-4: clinical isolate SPN 16-4
Summary of the method: as §1

[9] = test system: Moraxella catarrhalis (BCA); experiment: as above; conditions: for Anti-bacterial activity (MIC), strain BCA 14-1: clinical isolate BCA 14-1; for Anti-bacterial activity (MIC), strain BCA 14-4: clinical isolate BCA 14-4; for Anti-bacterial activity (MIC), strain BCA 14-5: clinical isolate BCA 14-5; for Anti-bacterial activity (MIC), strain BCA 14-6: clinical isolate BCA 14-6; for Anti-bacterial activity (MIC), strain BCA 14-7: clinical isolate BCA 14-7; for Anti-bacterial activity (MIC), strain BCA 14-8: clinical isolate BCA 14-8; for Anti-bacterial activity (MIC), strain BCA 14-10: clinical isolate BCA 14-10
Summary of the method: as §1

[10] = test system: HCT-116 colorectal cancer cell line; experiment: CCK-8 proliferation inhibition; conditions: Homo sapiens, HCT-116, 72 h, concentration of 30 μM; 72 hours; CCK-8; read-out: HCT116 inhibition rate/%
Summary of the method: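 Cells were plated overnight at 2000 cells/well, then compound in culture medium was added at a range of final concentrations. After 72 hours in a CO2 incubator, medium was replaced with 1:10 CCK-8 solution for the read-out.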

Structure (SMILES): CCCC[C@H](CC(=O)NO)C(=O)N1CC2(CC2)C[C@H]1C(=O)Nc1ncco1 [Example 53, (S)-5-((R)-2-(2-(hydroxyamino)-2-oxoethyl)hexanoyl)-N-(oxazol-2-yl)-5-azaspiro[2.4]heptane-6-carboxamide]
- Anti-bacterial activity (MIC), strain ECO+ 15-1 [1]: > 32 µg/mL
- Anti-bacterial activity (MIC), strain ECO+ 15-2 [1]: > 32 µg/mL
- Anti-bacterial activity (MIC), strain ECO+ 15-3 [1]: > 32 µg/mL
- Anti-bacterial activity (MIC), strain ECO+ 15-4 [1]: > 32 µg/mL
- Anti-bacterial activity (MIC), strain ECO− 15-1 [1]: > 32 µg/mL
- Anti-bacterial activity (MIC), strain ECO− 15-2 [1]: > 32 µg/mL
- Anti-bacterial activity (MIC), strain ECO− 15-3 [1]: > 32 µg/mL
- Anti-bacterial activity (MIC), strain ECO− 15-4 [1]: > 32 µg/mL
- Anti-bacterial activity (MIC), strain MSSE 15-3 [2]: > 32 µg/mL
- Anti-bacterial activity (MIC), strain MSSE 15-4 [2]: > 32 µg/mL
- Anti-bacterial activity (MIC), strain MSSE 15-5 [2]: > 32 µg/mL
- Anti-bacterial activity (MIC), strain MSSE 15-6 [2]: > 32 µg/mL
- Anti-bacterial activity (MIC), strain EFA 15-1 [3]: > 32 µg/mL
- Anti-bacterial activity (MIC), strain EFA 15-2 [3]: > 32 µg/mL
- Anti-bacterial activity (MIC), strain EFA 15-3 [3]: > 32 µg/mL
- Anti-bacterial activity (MIC), strain EFA 15-4 [3]: > 32 µg/mL
- Anti-bacterial activity (MIC), strain EFA 15-5 [3]: > 32 µg/mL
- Anti-bacterial activity (MIC), strain EFA 15-6 [3]: > 32 µg/mL
- Anti-bacterial activity (MIC), strain EFA 15-9 [3]: > 32 µg/mL
- Anti-bacterial activity (MIC), strain EFM 15-1 [4]: > 32 µg/mL
- Anti-bacterial activity (MIC), strain EFM 15-2 [4]: > 32 µg/mL
- Anti-bacterial activity (MIC), strain EFM 15-3 [4]: > 32 µg/mL
- Anti-bacterial activity (MIC), strain EFM 15-4 [4]: > 32 µg/mL
- Anti-bacterial activity (MIC), strain EFM 15-5 [4]: 32 µg/mL
- Anti-bacterial activity (MIC), strain EFM 15-6 [4]: 32 µg/mL
- Anti-bacterial activity (MIC), strain MRSE 15-1 [5]: > 32 µg/mL
- Anti-bacterial activity (MIC), strain MRSE 15-2 [5]: > 32 µg/mL
- Anti-bacterial activity (MIC), strain MRSE 15-3 [5]: > 32 µg/mL
- Anti-bacterial activity (MIC), strain MRSE 15-7 [5]: > 32 µg/mL
- Anti-bacterial activity (MIC), strain MRSA 15-1 [6]: 16 µg/mL
- Anti-bacterial activity (MIC), strain MRSA 15-2 [6]: > 32 µg/mL
- Anti-bacterial activity (MIC), strain MRSA 15-3 [6]: 16 µg/mL
- Anti-bacterial activity (MIC), strain MRSA 15-4 [6]: > 32 µg/mL
- Anti-bacterial activity (MIC), strain MSSA 15-3 [7]: > 32 µg/mL
- Anti-bacterial activity (MIC), strain MSSA 15-4 [7]: > 32 µg/mL
- Anti-bacterial activity (MIC), strain MSSA 15-5 [7]: > 32 µg/mL
- Anti-bacterial activity (MIC), strain MSSA 15-6 [7]: > 32 µg/mL
- Anti-bacterial activity (MIC), strain SPN 16-2 [8]: 32 µg/mL
- Anti-bacterial activity (MIC), strain SPN 16-4 [8]: 32 µg/mL
- Anti-bacterial activity (MIC), strain BCA 14-1 [9]: > 32 µg/mL
- Anti-bacterial activity (MIC), strain BCA 14-4 [9]: > 32 µg/mL
- Anti-bacterial activity (MIC), strain BCA 14-5 [9]: > 32 µg/mL
- Anti-bacterial activity (MIC), strain BCA 14-6 [9]: > 32 µg/mL
- Anti-bacterial activity (MIC), strain BCA 14-7 [9]: > 32 µg/mL
- Anti-bacterial activity (MIC), strain BCA 14-8 [9]: > 32 µg/mL
- Anti-bacterial activity (MIC), strain BCA 14-10 [9]: > 32 µg/mL
- inhibition at 30 µM [10]: -18%

Structure (SMILES): CCCC[C@H](CC(=O)NO)C(=O)N1CC2(CC2)C[C@H]1C(=O)Nc1ccno1 [Example 54, (S)-5-((R)-2-(2-(hydroxyamino)-2-oxoethyl)hexanoyl)-N-(isoxazol-5-yl)-5-spiro[2.4]heptane-6-carboxamide]
- Anti-bacterial activity (MIC), strain ECO+ 15-1 [1]: > 32 µg/mL
- Anti-bacterial activity (MIC), strain ECO+ 15-2 [1]: > 32 µg/mL
- Anti-bacterial activity (MIC), strain ECO+ 15-3 [1]: > 32 µg/mL
- Anti-bacterial activity (MIC), strain ECO+ 15-4 [1]: > 32 µg/mL
- Anti-bacterial activity (MIC), strain ECO− 15-1 [1]: > 32 µg/mL
- Anti-bacterial activity (MIC), strain ECO− 15-2 [1]: > 32 µg/mL
- Anti-bacterial activity (MIC), strain ECO− 15-3 [1]: > 32 µg/mL
- Anti-bacterial activity (MIC), strain ECO− 15-4 [1]: > 32 µg/mL
- Anti-bacterial activity (MIC), strain MSSE 15-3 [2]: > 32 µg/mL
- Anti-bacterial activity (MIC), strain MSSE 15-4 [2]: > 32 µg/mL
- Anti-bacterial activity (MIC), strain MSSE 15-5 [2]: > 32 µg/mL
- Anti-bacterial activity (MIC), strain MSSE 15-6 [2]: > 32 µg/mL
- Anti-bacterial activity (MIC), strain EFA 15-1 [3]: > 32 µg/mL
- Anti-bacterial activity (MIC), strain EFA 15-2 [3]: > 32 µg/mL
- Anti-bacterial activity (MIC), strain EFA 15-3 [3]: > 32 µg/mL
- Anti-bacterial activity (MIC), strain EFA 15-4 [3]: > 32 µg/mL
- Anti-bacterial activity (MIC), strain EFA 15-5 [3]: > 32 µg/mL
- Anti-bacterial activity (MIC), strain EFA 15-6 [3]: > 32 µg/mL
- Anti-bacterial activity (MIC), strain EFA 15-9 [3]: 32 µg/mL
- Anti-bacterial activity (MIC), strain EFM 15-1 [4]: > 32 µg/mL
- Anti-bacterial activity (MIC), strain EFM 15-2 [4]: > 32 µg/mL
- Anti-bacterial activity (MIC), strain EFM 15-3 [4]: > 32 µg/mL
- Anti-bacterial activity (MIC), strain EFM 15-4 [4]: > 32 µg/mL
- Anti-bacterial activity (MIC), strain EFM 15-5 [4]: 2 µg/mL
- Anti-bacterial activity (MIC), strain EFM 15-6 [4]: 8 µg/mL
- Anti-bacterial activity (MIC), strain MRSE 15-1 [5]: > 32 µg/mL
- Anti-bacterial activity (MIC), strain MRSE 15-2 [5]: > 32 µg/mL
- Anti-bacterial activity (MIC), strain MRSE 15-3 [5]: > 32 µg/mL
- Anti-bacterial activity (MIC), strain MRSE 15-7 [5]: > 32 µg/mL
- Anti-bacterial activity (MIC), strain MRSA 15-1 [6]: > 32 µg/mL
- Anti-bacterial activity (MIC), strain MRSA 15-2 [6]: > 32 µg/mL
- Anti-bacterial activity (MIC), strain MRSA 15-3 [6]: > 32 µg/mL
- Anti-bacterial activity (MIC), strain MRSA 15-4 [6]: > 32 µg/mL
- Anti-bacterial activity (MIC), strain MSSA 15-3 [7]: > 32 µg/mL
- Anti-bacterial activity (MIC), strain MSSA 15-4 [7]: > 32 µg/mL
- Anti-bacterial activity (MIC), strain MSSA 15-5 [7]: > 32 µg/mL
- Anti-bacterial activity (MIC), strain MSSA 15-6 [7]: > 32 µg/mL
- Anti-bacterial activity (MIC), strain SPN 16-2 [8]: 4 µg/mL
- Anti-bacterial activity (MIC), strain SPN 16-4 [8]: 4 µg/mL
- Anti-bacterial activity (MIC), strain BCA 14-1 [9]: > 32 µg/mL
- Anti-bacterial activity (MIC), strain BCA 14-4 [9]: > 32 µg/mL
- Anti-bacterial activity (MIC), strain BCA 14-5 [9]: 32 µg/mL
- Anti-bacterial activity (MIC), strain BCA 14-6 [9]: > 32 µg/mL
- Anti-bacterial activity (MIC), strain BCA 14-7 [9]: > 32 µg/mL
- Anti-bacterial activity (MIC), strain BCA 14-8 [9]: > 32 µg/mL
- Anti-bacterial activity (MIC), strain BCA 14-10 [9]: > 32 µg/mL
- inhibition at 30 µM [10]: 8%
